From ChEMBL document CHEMBL5038633 (J Med Chem, 2022)
Where a SMILES comes first, the peptide text is derived from it. Bridges are numbered along the chain shown (N, C = ends). [ ]: non-standard residue; d: D form. Trp(5-Br) = N[C@@H](Cc1c[nH]c2ccc(Br)cc12)C(=O)O; Abu(4,4,4-F3) = N[C@@H](CC(F)(F)F)C(=O)O; Phe(3-Cl) = N[C@@H](Cc1cccc(Cl)c1)C(=O)O; Cha = N[C@@H](CC1CCCCC1)C(=O)O; Chg = N[C@H](C(=O)O)C1CCCCC1

Key:
[1] = target: Sodium channel protein type 9 subunit alpha (Homo sapiens, UniProt Q15858); test: Inhibition of human Nav1.7 stably expressed in cells with train pulses to -20 mV at 0.1 Hz and holding potential of -95 mV by Qube-automated patch clamp assay; assay type: cell-based
[2] = target: Sodium channel protein type 8 subunit alpha (Homo sapiens, UniProt Q9UQD0); test: Inhibition of human Nav1.6 stably expressed in cells with train pulses to -20 mV at 0.1 Hz and holding potential of -85 mV by whole-cell Qube-automated patch clamp assay; assay type: cell-based
Sodium channel protein type 8 subunit alpha, sequence (Q9UQD0 whole entry): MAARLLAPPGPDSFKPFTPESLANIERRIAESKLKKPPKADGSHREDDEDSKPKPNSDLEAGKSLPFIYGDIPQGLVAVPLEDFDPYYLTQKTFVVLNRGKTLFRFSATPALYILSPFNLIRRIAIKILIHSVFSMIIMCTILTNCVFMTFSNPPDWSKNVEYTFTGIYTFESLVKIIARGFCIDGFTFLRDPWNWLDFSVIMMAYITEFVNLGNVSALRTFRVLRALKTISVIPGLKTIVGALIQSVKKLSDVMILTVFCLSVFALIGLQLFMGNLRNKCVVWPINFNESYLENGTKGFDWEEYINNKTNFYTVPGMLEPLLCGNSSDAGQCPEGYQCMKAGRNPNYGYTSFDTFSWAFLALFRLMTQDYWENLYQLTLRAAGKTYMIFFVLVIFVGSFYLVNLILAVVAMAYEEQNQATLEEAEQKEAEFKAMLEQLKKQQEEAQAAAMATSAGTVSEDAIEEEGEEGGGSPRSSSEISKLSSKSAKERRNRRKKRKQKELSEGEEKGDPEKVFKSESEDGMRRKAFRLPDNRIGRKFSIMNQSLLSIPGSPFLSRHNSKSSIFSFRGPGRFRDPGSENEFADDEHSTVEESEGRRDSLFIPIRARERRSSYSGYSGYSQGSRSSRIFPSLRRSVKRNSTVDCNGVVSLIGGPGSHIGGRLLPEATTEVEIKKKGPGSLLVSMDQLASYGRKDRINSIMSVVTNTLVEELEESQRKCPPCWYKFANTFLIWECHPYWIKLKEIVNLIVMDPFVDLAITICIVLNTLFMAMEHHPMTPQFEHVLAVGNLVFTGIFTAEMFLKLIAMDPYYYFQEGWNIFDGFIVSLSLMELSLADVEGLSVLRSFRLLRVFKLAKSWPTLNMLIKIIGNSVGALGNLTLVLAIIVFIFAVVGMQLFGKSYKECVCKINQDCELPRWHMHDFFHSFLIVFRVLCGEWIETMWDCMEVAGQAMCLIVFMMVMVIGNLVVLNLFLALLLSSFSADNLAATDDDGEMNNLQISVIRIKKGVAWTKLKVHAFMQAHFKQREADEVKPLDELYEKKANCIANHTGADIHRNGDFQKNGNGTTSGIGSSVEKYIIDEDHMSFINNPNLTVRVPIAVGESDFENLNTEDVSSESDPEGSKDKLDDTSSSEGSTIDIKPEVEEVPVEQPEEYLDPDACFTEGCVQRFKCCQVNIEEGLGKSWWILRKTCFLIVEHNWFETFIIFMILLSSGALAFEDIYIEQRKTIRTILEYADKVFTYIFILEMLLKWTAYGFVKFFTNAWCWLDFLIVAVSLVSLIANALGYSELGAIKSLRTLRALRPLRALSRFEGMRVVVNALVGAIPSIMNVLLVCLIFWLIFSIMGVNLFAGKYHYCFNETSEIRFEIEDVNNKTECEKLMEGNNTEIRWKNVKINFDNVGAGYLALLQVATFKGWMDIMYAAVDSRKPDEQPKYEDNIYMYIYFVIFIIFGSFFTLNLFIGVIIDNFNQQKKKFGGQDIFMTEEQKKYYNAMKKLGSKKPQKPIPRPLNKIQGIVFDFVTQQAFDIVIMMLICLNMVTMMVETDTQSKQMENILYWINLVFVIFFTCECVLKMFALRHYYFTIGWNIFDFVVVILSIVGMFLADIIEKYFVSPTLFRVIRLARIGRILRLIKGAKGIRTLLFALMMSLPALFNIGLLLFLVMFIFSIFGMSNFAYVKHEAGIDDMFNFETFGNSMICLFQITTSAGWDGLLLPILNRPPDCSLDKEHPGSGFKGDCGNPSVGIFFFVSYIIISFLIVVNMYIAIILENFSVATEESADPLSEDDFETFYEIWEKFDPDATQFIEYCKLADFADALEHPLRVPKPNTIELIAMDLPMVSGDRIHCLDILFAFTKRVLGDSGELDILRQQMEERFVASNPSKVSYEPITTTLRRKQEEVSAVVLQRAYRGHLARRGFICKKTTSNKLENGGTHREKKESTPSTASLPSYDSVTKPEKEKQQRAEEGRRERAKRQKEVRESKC

[3] = Inhibition of mast cell degranulation in Wistar Han rat peritoneal lavage mast cells assessed as inhibition histamine release by measuring lowest concentration at which histamine release observed measured after 30 mins; assay type: functional; details: 0.5 h
[4] = target: Sodium channel protein type 4 subunit alpha (Homo sapiens, UniProt P35499); test: Inhibition of human Nav1.4 stably expressed in cells with train pulses to -20 mV at 0.1 Hz and holding potential of -95 mV by whole-cell Qube-automated patch clamp assay; assay type: cell-based
Sodium channel protein type 4 subunit alpha, sequence (P35499 whole entry): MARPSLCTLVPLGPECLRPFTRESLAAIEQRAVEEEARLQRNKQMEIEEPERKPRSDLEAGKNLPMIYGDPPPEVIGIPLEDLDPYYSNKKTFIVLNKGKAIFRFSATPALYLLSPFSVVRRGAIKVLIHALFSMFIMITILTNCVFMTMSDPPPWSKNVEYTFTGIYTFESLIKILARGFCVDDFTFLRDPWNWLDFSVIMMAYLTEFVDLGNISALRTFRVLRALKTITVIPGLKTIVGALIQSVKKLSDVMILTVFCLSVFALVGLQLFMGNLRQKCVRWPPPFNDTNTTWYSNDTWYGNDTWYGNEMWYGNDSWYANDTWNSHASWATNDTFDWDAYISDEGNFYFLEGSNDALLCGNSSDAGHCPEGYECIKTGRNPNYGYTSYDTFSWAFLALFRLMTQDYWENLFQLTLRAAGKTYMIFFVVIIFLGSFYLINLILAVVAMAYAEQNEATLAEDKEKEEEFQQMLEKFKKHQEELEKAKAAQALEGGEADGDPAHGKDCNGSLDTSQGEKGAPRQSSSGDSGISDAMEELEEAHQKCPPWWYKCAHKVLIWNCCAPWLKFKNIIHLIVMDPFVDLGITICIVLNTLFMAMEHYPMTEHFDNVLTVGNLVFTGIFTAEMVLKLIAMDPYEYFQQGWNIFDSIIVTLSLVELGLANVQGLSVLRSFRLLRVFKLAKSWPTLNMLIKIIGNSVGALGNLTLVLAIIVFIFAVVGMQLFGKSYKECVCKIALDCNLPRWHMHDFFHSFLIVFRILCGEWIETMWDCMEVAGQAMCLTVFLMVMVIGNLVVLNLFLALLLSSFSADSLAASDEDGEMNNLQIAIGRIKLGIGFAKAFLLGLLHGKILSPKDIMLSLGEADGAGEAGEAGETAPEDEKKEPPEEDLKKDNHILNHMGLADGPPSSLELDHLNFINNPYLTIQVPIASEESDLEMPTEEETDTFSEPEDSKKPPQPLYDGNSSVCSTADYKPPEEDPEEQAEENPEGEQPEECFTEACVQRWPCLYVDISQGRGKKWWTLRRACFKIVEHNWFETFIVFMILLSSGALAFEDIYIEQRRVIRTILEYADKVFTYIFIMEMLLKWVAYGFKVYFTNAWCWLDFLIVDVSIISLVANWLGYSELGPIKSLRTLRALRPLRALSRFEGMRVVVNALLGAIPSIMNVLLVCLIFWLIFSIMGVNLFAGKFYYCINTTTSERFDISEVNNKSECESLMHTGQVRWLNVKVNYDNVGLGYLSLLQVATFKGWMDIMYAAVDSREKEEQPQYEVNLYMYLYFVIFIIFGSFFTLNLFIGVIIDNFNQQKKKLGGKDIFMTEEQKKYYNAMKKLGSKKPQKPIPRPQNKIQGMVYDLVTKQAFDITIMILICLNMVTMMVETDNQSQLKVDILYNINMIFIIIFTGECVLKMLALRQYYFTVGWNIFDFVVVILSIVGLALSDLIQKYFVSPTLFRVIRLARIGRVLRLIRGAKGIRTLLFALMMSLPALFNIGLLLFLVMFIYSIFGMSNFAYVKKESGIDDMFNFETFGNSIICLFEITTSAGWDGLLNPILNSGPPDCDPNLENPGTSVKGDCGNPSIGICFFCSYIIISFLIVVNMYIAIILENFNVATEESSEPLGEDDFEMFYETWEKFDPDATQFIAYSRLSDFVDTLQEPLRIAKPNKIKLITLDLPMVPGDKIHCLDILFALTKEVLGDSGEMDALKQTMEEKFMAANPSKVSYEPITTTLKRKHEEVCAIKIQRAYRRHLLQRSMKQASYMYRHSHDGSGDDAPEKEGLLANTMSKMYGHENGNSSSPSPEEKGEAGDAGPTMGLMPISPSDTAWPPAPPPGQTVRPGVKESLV

SMILES	IC50 [1]	IC50 [2]	LED [3]	IC50 [4]
CC(=O)N[C@H]1CSSC[C@@H]2NC(=O)[C@@H]3CSSC[C@@H](C(=O)N[C@@H](CCCCN)C(=O)N[C@@H](CCCCN)C(=O)N[C@@H](CCCCN)C(=O)N[C@@H](CC(C)C)C(=O)N[C@@H](Cc4c[nH]c5ccccc45)C(N)=O)NC(=O)[C@H](Cc4c[nH]c5ccccc45)NC(=O)[C@H](CC(C)C)NC(=O)[C@H](C(C)C)NC(=O)[C@H](CSSC[C@H](NC(=O)[C@@H]4CCCN4C(=O)[C@H](C)NC(=O)[C@H](CC(C)C)NC(=O)[C@H](Cc4ccccc4)NC(=O)[C@H](CCCCN)NC(=O)[C@H](CCC(N)=O)NC1=O)C(=O)N[C@@H](CC(=O)O)C(=O)N[C@@H](CO)C(=O)N[C@@H](CCC(=O)O)C(=O)N[C@@H](CCCNC(=N)N)C(=O)N[C@@H](CCCCN)C(=O)N3)NC(=O)[C@H](CCC(=O)O)NC(=O)[C@H](CC(C)C)NC(=O)CNC(=O)[C@H](CCC(=O)O)NC2=O (Ac-CQKFLAPCDSERKCCEGLECVLWCKKKLW-NH2; disulfide 1-15, 8-20, 14-24)	232 nM	> 17000 nM	30 µM	> 17000 nM
CC(=O)N[C@H]1CSSC[C@@H]2NC(=O)[C@@H]3CSSC[C@@H](C(=O)N[C@@H](CCCCN)C(=O)N[C@@H](CCCCN)C(=O)N[C@@H](CCCCN)C(=O)N[C@@H](CC(C)C)C(=O)N[C@@H](Cc4c[nH]c5ccccc45)C(N)=O)NC(=O)[C@H](Cc4c[nH]c5ccccc45)NC(=O)[C@H](C4CCCCC4)NC(=O)[C@H](CCCCN)NC(=O)[C@H](CSSC[C@H](NC(=O)[C@@H]4CCCN4C(=O)[C@H](CCC(=O)O)NC(=O)[C@H](CC(F)(F)F)NC(=O)[C@H](Cc4c[nH]c5ccc(Br)cc45)NC(=O)[C@H](CCCCN)NC(=O)[C@H](CCC(N)=O)NC1=O)C(=O)N[C@@H](CC(=O)O)C(=O)N[C@@H](CO)C(=O)N[C@@H](CCC(=O)O)C(=O)N[C@@H](CCCNC(=N)N)C(=O)N[C@@H](CCCCN)C(=O)N3)NC(=O)[C@H](CCC(=O)O)NC(=O)[C@H](CC(C)C)NC(=O)CNC(=O)[C@H](CCC(=O)O)NC2=O (Ac-CQK[Trp(5-Br)][Abu(4,4,4-F3)]EPCDSERKCCEGLECK[Chg]WCKKKLW-NH2; disulfide 1-15, 8-20, 14-24)	30 nM	2610 nM	3.3 µM	> 17000 nM
CC(=O)N[C@H]1CSSC[C@@H]2NC(=O)[C@@H]3CSSC[C@@H](C(=O)N[C@@H](CCCCN)C(=O)N[C@@H](CCCCN)C(=O)N[C@@H](CCCCN)C(=O)N[C@@H](CC(C)C)C(=O)N[C@@H](Cc4c[nH]c5ccccc45)C(N)=O)NC(=O)[C@H](Cc4c[nH]c5ccccc45)NC(=O)[C@H](C4CCCCC4)NC(=O)[C@H](CCCCN)NC(=O)[C@H](CSSC[C@H](NC(=O)[C@@H]4CCCN4C(=O)[C@H](CCC(=O)O)NC(=O)[C@H](CC(F)(F)F)NC(=O)[C@H](Cc4cccc(Cl)c4)NC(=O)[C@H](CCCCN)NC(=O)[C@H](CCC(N)=O)NC1=O)C(=O)N[C@@H](CC(=O)O)C(=O)N[C@@H](CO)C(=O)N[C@@H](CCC(=O)O)C(=O)N[C@@H](CCCNC(=N)N)C(=O)N[C@@H](CCCCN)C(=O)N3)NC(=O)[C@H](CCC(=O)O)NC(=O)[C@H](CC(C)C)NC(=O)CNC(=O)[C@H](CCC(=O)O)NC2=O (Ac-CQK[Phe(3-Cl)][Abu(4,4,4-F3)]EPCDSERKCCEGLECK[Chg]WCKKKLW-NH2; disulfide 1-15, 8-20, 14-24)	64 nM	> 17000 nM	33 µM	> 17000 nM
CC(=O)N[C@H]1CSSC[C@@H]2NC(=O)[C@@H]3CSSC[C@@H](C(=O)N[C@@H](CCCCN)C(=O)N[C@@H](CCCCN)C(=O)N[C@@H](CCCCN)C(=O)N[C@@H](CC(C)C)C(=O)N[C@@H](Cc4c[nH]c5ccccc45)C(N)=O)NC(=O)[C@H](Cc4c[nH]c5ccccc45)NC(=O)[C@H](CC(C)C)NC(=O)[C@H](C(C)C)NC(=O)[C@H](CSSC[C@H](NC(=O)[C@@H]4CCCN4C(=O)[C@H](CCCCN)NC(=O)[C@H](CC(C)C)NC(=O)[C@H](Cc4ccccc4)NC(=O)[C@H](CCC(=O)O)NC(=O)[C@H](CCC(N)=O)NC1=O)C(=O)N[C@@H](CC(=O)O)C(=O)N[C@@H](CCCCN)C(=O)N[C@@H](CCC(=O)O)C(=O)N[C@@H](CCCNC(=N)N)C(=O)N[C@@H](CCCCN)C(=O)N3)NC(=O)[C@H](CCC(=O)O)NC(=O)[C@H](CC(C)C)NC(=O)CNC(=O)[C@H](CCC(=O)O)NC2=O (Ac-CQEFLKPCDKERKCCEGLECVLWCKKKLW-NH2; disulfide 1-15, 8-20, 14-24)	253 nM	> 17000 nM	10 µM	> 17000 nM
CC(=O)N[C@H]1CSSC[C@@H]2NC(=O)[C@@H]3CSSC[C@@H](C(=O)N[C@@H](CCCCN)C(=O)N[C@@H](CCCCN)C(=O)N[C@@H](CCCCN)C(=O)N[C@@H](CC(C)C)C(=O)N[C@@H](Cc4c[nH]c5ccccc45)C(N)=O)NC(=O)[C@H](Cc4c[nH]c5ccccc45)NC(=O)[C@H](C4CCCCC4)NC(=O)[C@H](CCCCN)NC(=O)[C@H](CSSC[C@H](NC(=O)[C@@H]4CCCN4C(=O)[C@H](CCC(=O)O)NC(=O)[C@H](CC(F)(F)F)NC(=O)[C@H](CC4CCCCC4)NC(=O)[C@H](CCCCN)NC(=O)[C@H](CCC(N)=O)NC1=O)C(=O)N[C@@H](CC(=O)O)C(=O)N[C@@H](CO)C(=O)N[C@@H](CCC(=O)O)C(=O)N[C@@H](CCCNC(=N)N)C(=O)N[C@@H](CCCCN)C(=O)N3)NC(=O)[C@H](CCC(=O)O)NC(=O)[C@H](CC(C)C)NC(=O)CNC(=O)[C@H](CCC(=O)O)NC2=O (Ac-CQK[Cha][Abu(4,4,4-F3)]EPCDSERKCCEGLECK[Chg]WCKKKLW-NH2; disulfide 1-15, 8-20, 14-24)	109 nM	> 17000 nM	30 µM	> 17000 nM
CC(=O)N[C@H]1CSSC[C@@H]2NC(=O)[C@@H]3CSSC[C@@H](C(=O)N[C@@H](CCCCN)C(=O)N[C@@H](CCCCN)C(=O)N[C@@H](CCCCN)C(=O)N[C@@H](CC(C)C)C(=O)N[C@@H](Cc4c[nH]c5ccccc45)C(N)=O)NC(=O)[C@H](Cc4c[nH]c5ccccc45)NC(=O)[C@H](CC(C)C)NC(=O)[C@H](CCCCN)NC(=O)[C@H](CSSC[C@H](NC(=O)[C@@H]4CCCN4C(=O)[C@H](CCCCN)NC(=O)[C@H](CC(C)C)NC(=O)[C@H](Cc4ccccc4)NC(=O)[C@H](CCC(=O)O)NC(=O)[C@H](CCC(N)=O)NC1=O)C(=O)N[C@@H](CC(=O)O)C(=O)N[C@@H](CCC(=O)O)C(=O)N[C@@H](CCC(=O)O)C(=O)N[C@@H](CCCNC(=N)N)C(=O)N[C@@H](CCCCN)C(=O)N3)NC(=O)[C@H](C(C)C)NC(=O)[C@H](CC(C)C)NC(=O)CNC(=O)[C@H](CCC(=O)O)NC2=O (Ac-CQEFLKPCDEERKCCEGLVCKLWCKKKLW-NH2; disulfide 1-15, 8-20, 14-24)	225 nM	> 17000 nM	10 µM	> 17000 nM
CC(=O)N[C@H]1CSSC[C@@H]2NC(=O)[C@@H]3CSSC[C@@H](C(=O)N[C@@H](CCCCN)C(=O)N[C@@H](CCCCN)C(=O)N[C@@H](CCCCN)C(=O)N[C@@H](CC(C)C)C(N)=O)NC(=O)[C@H](Cc4c[nH]c5ccccc45)NC(=O)[C@H](C4CCCCC4)NC(=O)[C@H](CCCCN)NC(=O)[C@H](CSSC[C@H](NC(=O)[C@@H]4CCCN4C(=O)[C@H](CCC(=O)O)NC(=O)[C@H](CC(F)(F)F)NC(=O)[C@H](Cc4ccccc4)NC(=O)[C@H](CCCCN)NC(=O)[C@H](CCC(N)=O)NC1=O)C(=O)N[C@@H](CC(=O)O)C(=O)N[C@@H](CO)C(=O)N[C@@H](CCC(=O)O)C(=O)N[C@@H](CCCNC(=N)N)C(=O)N[C@@H](CCCCN)C(=O)N3)NC(=O)[C@H](CCC(=O)O)NC(=O)[C@H](CC(C)C)NC(=O)CNC(=O)[C@H](CCC(=O)O)NC2=O (Ac-CQKF[Abu(4,4,4-F3)]EPCDSERKCCEGLECK[Chg]WCKKKL-NH2; disulfide 1-15, 8-20, 14-24)	240 nM	> 17000 nM	100 µM	> 17000 nM
CC(=O)N[C@H]1CSSC[C@@H]2NC(=O)[C@@H]3CSSC[C@@H](C(=O)N[C@@H](CCCCN)C(=O)N[C@@H](CCCCN)C(=O)N[C@@H](CCCCN)C(=O)N[C@@H](CC(C)C)C(=O)N[C@@H](Cc4c[nH]c5ccccc45)C(N)=O)NC(=O)[C@H](Cc4c[nH]c5ccccc45)NC(=O)[C@H](C4CCCCC4)NC(=O)[C@H](CCCCN)NC(=O)[C@H](CSSC[C@H](NC(=O)[C@@H]4CCCN4C(=O)[C@H](CCC(=O)O)NC(=O)[C@H](CC(F)(F)F)NC(=O)[C@H](Cc4ccccc4)NC(=O)[C@H](CCCCN)NC(=O)[C@H](CCC(N)=O)NC1=O)C(=O)N[C@@H](CC(=O)O)C(=O)N[C@@H](CO)C(=O)N[C@@H](CCC(=O)O)C(=O)N[C@@H](CCCNC(=N)N)C(=O)N[C@@H](CCCCN)C(=O)N3)NC(=O)[C@H](CCC(=O)O)NC(=O)[C@H](CC(C)C)NC(=O)CNC(=O)[C@H](CCC(=O)O)NC2=O (Ac-CQKF[Abu(4,4,4-F3)]EPCDSERKCCEGLECK[Chg]WCKKKLW-NH2; disulfide 1-15, 8-20, 14-24)	84 nM	> 17000 nM	30 µM	> 17000 nM
CC(=O)N[C@H]1CSSC[C@@H]2NC(=O)[C@@H]3CSSC[C@@H](C(=O)N[C@@H](CCCCN)C(=O)N[C@@H](CCCCN)C(=O)N[C@@H](CCCCN)C(=O)N[C@@H](CC(C)C)C(=O)N[C@@H](Cc4c[nH]c5ccccc45)C(N)=O)NC(=O)[C@H](Cc4c[nH]c5ccccc45)NC(=O)[C@H](CC(C)C)NC(=O)[C@H](CCCNC(=N)N)NC(=O)[C@H](CSSC[C@H](NC(=O)[C@@H]4CCCN4C(=O)[C@H](CCC(=O)O)NC(=O)[C@H](CC(C)C)NC(=O)[C@H](Cc4ccccc4)NC(=O)[C@H](CCCCN)NC(=O)[C@H](CCC(N)=O)NC1=O)C(=O)N[C@@H](CC(=O)O)C(=O)N[C@@H](CO)C(=O)N[C@@H](CCC(=O)O)C(=O)N[C@@H](CCCNC(=N)N)C(=O)N[C@@H](CCCCN)C(=O)N3)NC(=O)[C@H](C(C)C)NC(=O)[C@H](CC(C)C)NC(=O)CNC(=O)[C@H](CCC(=O)O)NC2=O (Ac-CQKFLEPCDSERKCCEGLVCRLWCKKKLW-NH2; disulfide 1-15, 8-20, 14-24)	43 nM	3940 nM	3.3 µM	4770 nM
